From patent EP1862459A1, “Novel heterocyclic compounds” (GLAXO GROUP LIMITED, priority 2006, dated 2007)
≈ marks a conversion by molar mass, not a printed value.

Experiment: physchem
Format: physicochemical
Settings: fassif, pH 6.8, Solubility in FaSSIF µg/ml
Description: Compound solubility determination
An amount of 3 mg solid compound with LC-MS purity ≥ 95% was required. This amount was split between 3 different glass vials (1.8 ml volume each), placing 1 mg compound into each one.
Organic solvents of HPLC grade were used. Ultra pure water (Milli-Q grade) was used. Buffers were prepared with ultra pure water and filtered using 0.45 […] cameo filters. The compositions of each solvent employed in this assay are described below (part III).
For each of the three vial samples prepared as described above, in which the amount of compound was totally dissolved, the following procedure was subsequently carried out: • a) A small amount (approx. 0.1mg) of additional solid compound was added to the vial to maintain an excess of the compound in the mixture in the form of undissolved solid. • b) The samples were magnetically stirred for 24 hr. If required, additional solid compound (0.1mg) was added to maintain excess of it and then the samples were stirred again. • c) Then the samples were filtered (Millipore Milex filters nylon 0.2 um) and three aliquots were taken (one from each of the three vials) and analysed by LC-MS. • d) The pH of the final solution in each sample was measured with a pH-meter (WTW pH330i and a pH-electrode Sentix 41).
All filtered aliquots were analysed by LC-MS. […]

| SMILES | solubility [µg/mL] |
| --- | --- |
| CC1=C(Cl)C(=O)C(CO)(c2ccc(Oc3ccc(OC(F)(F)F)cc3)cc2)CN1 (centres unmarked) [Example 1, 3-Chloro-5-(hydroxymethyl)-2-methyl-5-[4-({4-[(trifluoromethyl)oxy]phenyl}oxy)phenyl]-4(1H)-pyridinone] | 1 to 5 (≈ 2.34 to 11.7 µM) |
| Cc1[nH]c(C=NO)c(-c2ccc(Oc3ccc(OC(F)(F)F)cc3)cc2)c(=O)c1Cl [Example 5, 5-Chloro-6-methyl-4-oxo-3-[4-({4-[(trifluoromethyl)oxy]phenyl}oxy)phenyl]-1,4-dihydro-2-pyridinecarbaldehyde oxime] | 5 to 10 (≈ 11.4 to 22.8 µM) |
